Source: US20240165214A1, “COMPOSITIONS AND METHODS FOR STABILIZATION OF ALLOSTERIC PROTEINS” (priority 2021, published 2024)

Columns and labels:
[1] = test system: HRP; type: binding; details: fimbriae pre-treated with mAb824
Method: The assays were performed as described previously. In brief. 96-well microtiter plates were coated overnight with purified type 1 fimbriae in 0.02 M NaHCO3 buffer at pH 9.6 (0.1 mg/ml), followed by washes and quenching with 0.2% BSA in PBS. The immobilized fimbriae were incubated with HRP at a concentration of 50 μg/ml for 1 h in the absence or presence of 1% mannose. After extensive washing with PBS, bound horseradish peroxidase was detected by adding 100 μl of TMB substrate (Kirkegaard and Perry Laboratories, KPL) and absorbance was read at 650 nm. […] All incubations, unless stated otherwise, were performed at 37 C. The colorimetric reaction was developed in the presence of TMB substrate at RT and absorbance was read at 650 nm.

[2] = test system: mAb21; assay: mAb21 binding time course to immobilized fimbriae and three-state model; details: for mAb21 binding over time course: absence of mannose, 10 sec to 2 hours; for keq ± SEM: Keq=kact/kdeact; for time to 50% of the maximal optical density (OD50) of mAb21 binding: presence of soluble mannose
Method: The assays were performed as described previously. In brief. 96-well microtiter plates were coated overnight with purified type 1 fimbriae in 0.02 M NaHCO3 buffer at pH 9.6 (0.1 mg/ml), followed by washes and quenching with 0.2% BSA in PBS. The immobilized fimbriae were incubated with HRP at a concentration of 50 μg/ml for 1 h in the absence or presence of 1% mannose. After extensive washing with PBS, bound horseradish peroxidase was detected by adding 100 μl of TMB substrate (Kirkegaard and Perry Laboratories, KPL) and absorbance was read at 650 nm. […] After the incubation for indicated time, the plates were washed extensively with PBS and FimH-mAb21 complexes were detected using HRP-conjugated goat anti-mouse antibody (Sigma-Aldrich, diluted 1:3000). All incubations, unless stated otherwise, were performed at 37 C. The colorimetric reaction was developed in the presence of TMB substrate at RT and absorbance was read at 650 nm.
For our modeling, we made the following definitions and assumptions.
To estimate kmAb21, we assumed that LD^A27V-PD^FocH is essentially all in HAS in the presence of mannose, so we fit high time-resolution data with a saturable binding model,
We then estimated kact and kdeact for all four variants in the presence and absence of mannose by fitting this model to the data by minimizing the least square error between the model and data points divided by the value of the data. Parameters were estimated independently for the data from each day the experiment was performed, to provide multiple values of each constant.
There were two limitations to using this model to estimate these parameters. […] Second, in two additional conditions—LD^wt-PD^wt in the presence of mannose and LD^A27V-PD^wt in the absence of mannose, a wide range of values of the rate constants produced the same fitting error. To identify a lower bound for the rate constants, we fit kact while holding kdeact constant over a wide range of values and observed that the error was high for low rates but reached a plateau at higher rates. We identified the lowest kdeact and corresponding kact values at which the error was no more than 10% that of all higher values. Throughout this plateau, Keq=kact/kdeact remained within a tight and reproducible range, so was well-determined by the model. For these two conditions, the lower bounds for the two kinetic constants and the upper and lower bound for the equilibrium constants are reported in Table 8.
For the remaining five conditions, the rate constants as well as equilibrium constants were reproducible for a wide range of initial guesses, and between replicate experiments, so we consider these to be reliable. […] These values were consistent with the estimated bounds and are also reported in FIGS. 20C and 20D for illustration.

[3] = test system: guinea pig red blood cells (RBC); assay: RBC agglutination (rosette) under static conditions; type: cell-based
Method: (§1) Guinea pig RBC (Colorado Serum Company) were washed with PBS three times. 50 μl of RBC suspension (1%) was mixed 1:1 with 50 μl of 4×10^8 cfu of type 1 fimbriated bacteria in a glass plate in the absence and presence of 1% αmm and continuously mixed by gently rocking at ˜2-3 s^−1. The aggregation of RBC was visually scored and the time at which noticeable aggregation was observed and reported in minutes (min). In some experiments, bacterial cells were first pre-incubated for 5 min with 67 μg/ml of mAbs in the glass plate and then mixed with RBC suspension in the absence and presence of 1% αmm. RBC rosette-formation assay under was performed by mixing equal amounts of serially diluted bacterial sus-pensions (starting from OD540 nm 1.0) and a 1% suspension of RBC in U-bottom microtiter plate wells as described previously.
(§2) Finally, we compared cell binding ability of the FimH-expressing bacteria under static and dynamic conditions by using two classical set-ups with agglutination of guinea pig red blood cells (RBC)—the model cells for type 1 flmbriae-mediated bacterial adhesion. In the static assays, different dilutions of bacteria were combined with a suspension of RBC in U-shaped microtiter wells and allowed to settle without shaking. […]

[4] = test system: guinea pig red blood cells (RBC); assay: RBC aggregation under dynamic (rocking) conditions; type: cell-based
Method: as §1, §2

[5] = test system: RNase B; assay: BLI kinetics of FimH fimbriae binding to RNase B; design: species or system bovine; details: RNAseB binding
Method: To test the kinetics of fimbriae binding to RNase B, streptavidin-coated biosensors (SA, FortéBio) were first allowed to bind biotinylated RNase B (applied at a concentration of 10-20 μg/ml in 0.2% BSA HBS). […] The dissociation of the fimbriae-RNase B complexes was conducted in 0.2% BSA HBS. The binding sensorgrams after single reference subtraction (biosensors with 0.2% BSA HBS, or Fab824, respectively) were used for global fitting. […] The standard error that was given in the table for the kinetic parameters relates to the “fit” of the data to the model.

[6] = test system: guinea pig RBC; assay: Red blood cell (RBC) aggregation by bacteria under rocking (Example 1); type: cell-based
Method: Guinea pig RBC (Colorado Serum Company) were washed with PBS three times. 50 μl of RBC suspension (1%) was mixed 1:1 with 50 μl of 4×10^8 of type 1 fimbriated bacteria in a glass plate in the absence and presence of 1% αmm and continuously mixed at high speed on rotator (Model 260300F, Fisher Scientific) for extended period of time. The aggregation of RBC was visually scored and the time at which noticeable aggregation was observed and reported in minutes (min). In some experiments, bacterial cells were first pre-incubated for 5 min with 67 μg/ml of mAbs in the glass plate and then mixed with RBC suspension in the absence and presence of 1% αmm.

[7] = biological target: T1, FimH^wt (FimH adhesin of E. coli K12) (Escherichia coli K12, UniProt P08191 22-300); assay: BLI; fimbriae on biotinylated RNase B on streptavidin probe; conformational change model; PBS
T1 construct: also called FimH^K12; LD^A27V-PD^wt
Method: To test the kinetics of fimbriae binding to RNase B, streptavidin-coated biosensors (SA, FortéBio) were first allowed to bind biotinylated RNase B (applied at a concentration of 10-20 μg/ml in 0.2% BSA HBS). […] The dissociation of the fimbriae-RNase B complexes was conducted in 0.2% BSA HBS. […] The standard error that was given in the table for the kinetic parameters relates to the “fit” of the data to the model.

[8] = test system: asialofetuin; assay: FmIH-dependent bacterial adhesion to asialofetuin; type: cell-based
Method: (§3) FmIH-dependent bacterial adhesion was analyzed as described previously with minor modifications (47). Briefly, Immulon 4HBX microtiter plates (Thermo Electron Corp.) were coated with 20 μg/mL of asialofetuin (Sigma-Aldrich) and plates were quenched with 0.2% BSA in PBS. Bacterial suspensions in PBS (OD540=2) were added to each well in a volume of 100 μl and plates were spun for 2 min at 750×g. After extensive washing, bound bacteria were stained with 0.1% (vol/vol) crystal violet for 20 min at room temperature and were washed several times with water. Then 100 μl of 50% (vol/vol) ethanol was added to each well, and the absorbance at a wavelength of 600 nm was measured. For inhibition, bacterial binding was tested in the presence of 1% galactose (Sigma).
as §3, with “[Kisiela D I, et al. (2015) Inhibition and Reversal of Microbial Attachment by an Antibody with Parasteric Activity against the FimH Adhesin of Uropathogenic E. coli. PLoS Pathog 11: e1004857].” for “(47).”, “(ThermoFisher Scientific)” for “(Thermo Electron Corp.)”

[9] = full-length FmIH in type 1 fimbrial background

LD^wt-PD^wt: naturally-occurring FimH from fecal E. coli strain F18, evolutionary wild-type
binding of HRP in complex with mAb824 [1]: remained very weak
mAb21 binding over time course [2]: No reliably measurable binding
kact ± SEM ([2]; mannose presence): >2.0 × 10^−4
kdeact ± SEM ([2]; mannose presence): >8.5 × 10^−2
keq ± SEM ([2]; mannose presence): 1.7 × 10^−2 to 2.3 × 10^−2
mAb21 binding to fimbriae ([2]; presence of 1% alpha-methyl-mannoside, 1 h): somewhat lower
time to 50% of the maximal optical density (OD50) of mAb21 binding [2]: ~30 min
RBC binding / rosette formation [3]: could not bind RBC at any concentration
Minimal IC of mannose [4]: .1%

FimH^wt: 'wild-type' FimH adhesin from E. coli K12; b242: K12 and J96 express LD^A27V-PD^wt
koff higher relative to FimH^FocH [5]: ~1000 fold
kon higher relative to FimH^FocH [5]: ~50 fold
lower affinity relative to FimH^FocH [5]: ~10 fold
Time upon which noticeable aggregation of RBC was observed ([6]; mAb824 pre-incubation (67 μg/ml)): >60 min
Time upon which noticeable aggregation of RBC was observed ([6]; αmm (1%)): >60 min
binding of HRP in complex with mAb824 [1]: remained very weak
mAb21 binding over time course [2]: only marginal at the later time points
kact ± SEM ([2]; mannose absence): >8.8 × 10^−5
kdeact ± SEM ([2]; mannose absence): >2.3 × 10^0
keq ± SEM ([2]; mannose absence): 1.5 × 10^−3 to 4.0 × 10^−3
kact ± SEM ([2]; mannose presence): 3.4 × 10^−3 ± 0.4 × 10^−3
kdeact ± SEM ([2]; mannose presence): 8.7 × 10^−3 ± 1.7 × 10^−2
keq ± SEM ([2]; mannose presence): 3.9 × 10^−1 ± 0.9 × 10^−1
time to 50% of the maximal optical density (OD50) of mAb21 binding [2]: ~3 min
RBC binding / rosette formation [3]: only at a relatively high concentration (low titer) of bacteria
Minimal IC of mannose [4]: .1%

B1: ribonuclease B (RNase B), bovine (enzyme, UniProt P61823 27-150, looked up)
chain: KETAAAKFERQHMDSSTSAASSSNYCNQMMKSRNLTKDRCKPVNTFVHESLADVQAVCSQKNVACKNGQTNCYQSYSTMSITDCRETGSSKYPNCAYKTTQANKHIIVACEGNPYVPVHFDASV
modifications: N-linked high-mannose (Man5) oligosaccharides; biotinylated with Sulfo-NHS-LC-Biotin
Kd [7]: 149 nM
koff [7]: 0.256 s⁻¹
kon [7]: 1.1e+06 M⁻¹ s⁻¹

B2: V33E (protein, listed as Escherichia coli)
chain: FSCNVDGGSSIGAGTTSVYVNLDPVIQPGQNLEVDLSQHISCWNDYGGWYDTDHINLVQGSAFAGSLQSYKGSLYWNNVTYPFPLTTNTNVLDIGDKTPMPLPLKLYITPVGAAGGVVIKAGEVIARIHMYKIATLGSGNPRNFTWNIISNNSVVMPTGG
bacterial binding to asialofetuin [8, 9]: activation of the binding phenotype

B3: F63E (protein, listed as Escherichia coli)
chain: FSCNVDGGSSIGAGTTSVYVNLDPVIQPGQNLVVDLSQHISCWNDYGGWYDTDHINLVQGSAEAGSLQSYKGSLYWNNVTYPFPLTTNTNVLDIGDKTPMPLPLKLYITPVGAAGGVVIKAGEVIARIHMYKIATLGSGNPRNFTWNIISNNSVVMPTGG
bacterial binding to asialofetuin [8, 9]: activation of the binding phenotype

B4: L32E (protein, listed as Escherichia coli)
chain: FSCNVDGGSSIGAGTTSVYVNLDPVIQPGQNEVVDLSQHISCWNDYGGWYDTDHINLVQGSAFAGSLQSYKGSLYWNNVTYPFPLTTNTNVLDIGDKTPMPLPLKLYITPVGAAGGVVIKAGEVIARIHMYKIATLGSGNPRNFTWNIISNNSVVMPTGG
bacterial binding to asialofetuin [8, 9]: did not increase binding
bacterial binding to asialofetuin ([8]; mutation in FmIH^FocH): decreased the binding properties of FmIH^FocH

B5: FmIH^FocH: wild-type FmIH lectin domain fused to the heterogeneous FocH-type pilin domain (protein)
chain: FSCNVDGGSSIGAGTTSVYVNLDPVIQPGQNLVVDLSQHISCWNDYGGWYDTDHINLVQGSAFAGSLQSYKGSLYWNNVTYPFPLTTNTNVLDIGDKTPMPLPLKLYITPVGAAGGVVIKAGEVIARIHMYKIATLGSGNPRNFTWNIISNNSVVMPTGGCDVSARDVTVTLPDYPGSVPIPLTVRCDQTQSVSYTLSGSVADAGNSIFTNTASFSPAQGVGVQLTRNGTIIPANNTVSLGAVGTSAVSLGLTANYARTGGQVTAGNVQSIIGVTFVYQ
bacterial binding to asialofetuin [8, 9]: increased binding relative to the wild-type adhesin
